# Experimental data: PubChem BioAssay (NCI)
# Values joined by “and” are separate entries in the source; they are usually repeats but may differ in a detail not shown here. Equal values may be shown once.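 Results reflect a 48-hour exposure of cells in 96-well plates to compound at five concentrations. At the GI50, growth is halved. Definition used: TGI = concentration required for complete inhibition of growth.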
# Assays:
# Assay in all cases: inhibition of tumour cell growth, NCI panel, 48 h
# HS 578T breast = tested on: HS 578T breast
# HOP-92 NSCLC = tested on: HOP-92 NSCLC
# MDA-MB-231 breast = tested on: MDA-MB-231 breast
# NCI-H23 lung = tested on: NCI-H23 lung
# SF-539 CNS = tested on: SF-539 CNS
# T-47D breast = tested on: T-47D breast
# SF-268 CNS = tested on: SF-268 CNS
# SK-MEL-5 melanoma = tested on: SK-MEL-5 melanoma
SMILES,GI50 (HS 578T breast) [µM],TGI (HS 578T breast),GI50 (HOP-92 NSCLC),TGI (HOP-92 NSCLC),GI50 (MDA-MB-231 breast),TGI (MDA-MB-231 breast),GI50 (NCI-H23 lung),TGI (NCI-H23 lung),GI50 (SF-539 CNS),TGI (SF-539 CNS),TGI (T-47D breast),TGI (SF-268 CNS),TGI (SK-MEL-5 melanoma),GI50 (T-47D breast) [µM],GI50 (SF-268 CNS),GI50 (SK-MEL-5 melanoma)
Cc1ccc(NC(=O)c2nc(S(C)(=O)=O)oc2-c2ccc(F)cc2)cc1Nc1ccc2ncn(C)c(=O)c2c1,3.06,14.9 µM,1.91 µM,3.87 µM,1.64 µM,3.15 µM,2.79 µM,9.19 µM,1.65 µM,3.14 µM,–,–,–,–,–,–
O=C1C=CC(=O)N1c1ccc(I)cc1,–,66.3 µM,–,46.6 µM,–,52.7 µM,–,51.2 µM,–,> 57.6 µM,72.3 µM,> 77.5 µM,34.1 µM,–,–,–
O=C(O)CNCCc1ccccc1,–,> 100 µM,–,> 100 µM,–,> 100 µM,–,> 100 µM,–,–,> 100 µM,> 100 µM,> 100 µM,–,–,–
N#C/C(=C\c1ccc(F)cc1)n1nc2cccc(F)c2n1,–,–,2.1 µM,9.15 µM,5.55 µM,> 100 µM,3.9 µM,> 100 µM,3.14 µM,11.1 µM,> 100 µM,> 100 µM,> 100 µM,4.2,4.99 µM,3.76 µM
O=C1c2cccnc2C(=O)c2c1c(C(=O)OCCc1ccccn1)c1ccccn21,< 0.0338,3.21 µM,0.121 µM,5.58 µM,1.48 µM,> 100 µM,0.0218 µM,1.06 µM,0.0334 µM,0.432 µM,8.39 µM,5.31 µM,0.299 µM,1.71,0.0188 µM,0.0332 µM
FC(F)(F)c1ccc(-c2ncc(-c3ccc(C(F)(F)F)cc3)c(NCc3cc(C(F)(F)F)cc(C(F)(F)F)c3)n2)cc1,2.83,27.4 µM,1.7 µM,5.05 µM,3.81 µM,14.8 µM,3.24 µM,23.8 µM,7.71 µM,> 100 µM,29 µM,> 100 µM,41.8 µM,3.12,3.98 µM,16.5 µM
O=c1[nH]c(F)nc2c1ncn2C1OC(CO)C(O)C1O (stereo not given),> 100,> 100 µM,> 100 µM,> 100 µM,> 100 µM,> 100 µM,> 100 µM,> 100 µM,23.9 µM,80.3 µM,> 100 µM,> 100 µM,> 100 µM,> 100,> 100 µM,> 100 µM
Cn1c(NCC(CN2CCCC2)OC(=O)c2ccccc2)cc(=O)n(C)c1=O (stereo not given),> 100,> 100 µM,> 100 µM,> 100 µM,> 100 µM,> 100 µM,> 100 µM,> 100 µM,> 100 µM,> 100 µM,> 100 µM,> 100 µM,> 100 µM,> 100,> 100 µM,> 100 µM
CCOC(=O)[C@@H](C)C[C@H](Cc1ccccc1)NC(=O)c1csc([C@@H](C[C@H](C(C)C)N(C)C(=O)[C@@H](NC(=O)[C@H]2C[C@H](O)CCN2C)C(C)C)OC(C)=O)n1,0.00906,> 16.7 µM,0.00663 µM,> 4.46 µM,0.00565 µM,3.24 µM,0.00763 µM,> 16.7 µM,0.00452 µM,0.0157 µM,–,> 16.7 µM,0.13 µM,–,0.00881 µM,0.00175 µM
C=C(CN1CCN(c2ccccc2C(F)(F)F)CC1)c1ccc(C(=O)Nc2ccccc2N)cc1,12.8,> 100 µM,1.85 µM,30.9 µM,4.68 µM,> 56.1 µM,5.93 µM,> 100 µM,3.27 µM,41.7 µM,> 100 µM,> 47 µM,9.83 µM,7.67,4.55 µM,3 µM
O=C(O)c1cn(C2CC2)c2cc(N3CCN(C(=O)Nc4nc(-c5ccc(Br)cc5)cs4)CC3)c(F)cc2c1=O,1.91,> 100 µM,2 µM,6.88 µM,3.48 µM,> 100 µM,1.43 µM,> 100 µM,1.56 µM,> 100 µM,> 100 µM,> 100 µM,–,1.57,1.23 µM,–
FC(F)(F)c1cc(-c2ncn(/C=C\c3nnco3)n2)cc(C(F)(F)F)c1,0.195,8.28 µM,0.0391 µM,4.87 µM,0.132 µM,> 73.9 µM,0.146 µM,> 41.4 µM,0.0197 µM,0.0744 µM,> 41.5 µM,10.1 µM,2.74 µM,0.0567,0.0462 µM,0.165 µM
CC1(C)OC2C(CO)OC(n3ccc(N)nc3=O)C2O1 (stereo not given),–,> 100 µM,–,> 100 µM,–,> 100 µM,–,> 100 µM,–,> 100 µM,> 100 µM,> 100 µM,> 100 µM,–,–,–
COc1cc2c(cc1OCCCCn1c(-c3cccs3)nc3ccccc31)N=C[C@@H]1CCCN1C2=O,1.7,6.43 µM,1.33 µM,5.46 µM,1.39 µM,5.22 µM,2.05 µM,4.4 µM,1.72 µM,3.66 µM,3.65 µM,5.48 µM,2.3 µM,0.503,1.8 µM,1.09 µM
C=C1C(=O)OC2CC1C(OC(C)=O)C/C(C)=C/CC/C(C)=C\CCC2(C)O (stereo not given),–,25.1 µM and 26.2 µM,–,13.2 µM and 9.51 µM,–,22.5 µM and 22.2 µM,7.77 µM and 1.84 µM,22.4 µM and 4.44 µM,–,18.4 µM and 12.7 µM,14.6 µM and 62.7 µM,22.9 µM and 20.3 µM,24 µM and 10.8 µM,–,–,6.82 µM and 2.88 µM
c1ccc(-c2cn(-c3ccccc3)c(-c3ccccc3)n2)cc1,–,–,20.1 µM,50.4 µM,18.4 µM,36.5 µM,16.6 µM,34.9 µM,14.2 µM,27.9 µM,26.2 µM,29.5 µM,28.3 µM,9.3,14.8 µM,14.9 µM
CCCOc1ccc(/C=N/Nc2cc(C)nc3ccc(Cl)cc23)cc1,2.15,4.63 µM,1.51 µM,3.11 µM,1.85 µM,3.49 µM,1.81 µM,3.52 µM,1.79 µM,3.2 µM,3.62 µM,4.19 µM,2.88 µM,1.71,2.24 µM,1.54 µM
CCCCCCc1cc2cc(-c3csc(/C=C/c4ccccc4)n3)c(=O)oc2cc1O,9,42.7 µM,4.32 µM,17.7 µM,8.82 µM,31.1 µM,3.09 µM,10.1 µM,10 µM,23 µM,> 100 µM,28.9 µM,49.3 µM,13.9,11.6 µM,19.3 µM

SMILES,GI50 (HS 578T breast) [µM],TGI (HS 578T breast),GI50 (HOP-92 NSCLC),TGI (HOP-92 NSCLC),GI50 (MDA-MB-231 breast),TGI (MDA-MB-231 breast),GI50 (NCI-H23 lung),TGI (NCI-H23 lung),GI50 (SF-539 CNS),TGI (SF-539 CNS),TGI (T-47D breast),TGI (SF-268 CNS),TGI (SK-MEL-5 melanoma),GI50 (T-47D breast) [µM],GI50 (SF-268 CNS),GI50 (SK-MEL-5 melanoma)
O=C(c1cccs1)c1nc2cc(Cl)ccc2[n+]([O-])c1C(F)(F)F,> 100,> 100 µM,–,–,> 100 µM,> 100 µM,> 100 µM,> 100 µM,> 100 µM,> 100 µM,–,> 100 µM,> 100 µM,–,> 100 µM,45.4 µM
N#Cc1c2ccccc2c2nnc3ccccc3n12,–,–,> 100 µM,> 100 µM,–,–,–,–,–,–,> 100 µM,> 100 µM,–,> 100,50 µM,–
COc1ccc(C2CC(c3ccc4ccccc4c3)=NN2c2nc(O)c(C3=c4cc(OC)ccc4=NC3=O)s2)cc1 (stereo not given),0.0418,0.614 µM,0.131 µM,0.358 µM,0.0408 µM,0.201 µM,0.0348 µM,0.191 µM,0.741 µM,4.34 µM,0.184 µM,0.241 µM,0.243 µM,0.0401,0.0615 µM,0.0899 µM
Cc1cc(=O)oc2cc(OC(=O)Nc3ccccc3)ccc12,–,> 100 µM,–,75.4 µM,–,> 100 µM,–,> 100 µM,–,> 100 µM,> 100 µM,> 100 µM,> 100 µM,–,–,–
CCN(CC)CC(O)COc1c(Br)c(Br)c(Br)c2c1OC(C)(C)C2 (stereo not given),4.58,19 µM,1.35 µM,6.05 µM,2.44 µM,6.08 µM,9.04 µM,28.9 µM,4.34 µM,16.4 µM,41 µM,26.3 µM,3.24 µM,10.6,8.35 µM,1.82 µM
O=Cc1ccc(-c2ccc(-c3ccc(C=O)o3)[se]2)o1,> 100,> 100 µM,57.1 µM,> 100 µM,54 µM,> 100 µM,56.3 µM,> 100 µM,> 100 µM,> 100 µM,> 100 µM,> 100 µM,> 100 µM,> 100,> 95.4 µM,> 100 µM
Cn1c(=O)c2[nH]c(CCCc3ccc([N+](=O)[O-])cc3)nc2n(C)c1=O,–,> 100 µM,–,> 100 µM,–,> 100 µM,–,> 100 µM,–,> 100 µM,> 100 µM,> 100 µM,> 100 µM,–,–,–
COc1cc2c3c(n(CCCN4CCCNCC4)c(=O)c2cc1OC)-c1cc2c(cc1C3=O)OCO2,2.09,14.2 µM,0.135 µM,0.471 µM,1.06 µM,3.5 µM,0.346 µM,2.57 µM,0.29 µM,1.37 µM,7.98 µM,11.2 µM,8.21 µM,0.984,0.758 µM,1.34 µM
CS(=N)(=O)CCC(N)P(=O)(O)O (stereo not given),–,> 100 µM,–,> 100 µM,–,> 100 µM,–,> 100 µM,–,> 100 µM,> 100 µM,> 100 µM,> 100 µM,–,–,–
N#Cc1ccc(C(C2C(=O)NC(=O)NC2=O)C2C(=O)NC(=O)NC2=O)cc1,–,–,–,> 100 µM,–,–,–,> 100 µM,–,> 100 µM,–,> 100 µM,> 100 µM,–,–,–
O=C1C(=C([O-])c2ccccc2)C(=O)c2ccccc21.O=C1C(=C([O-])c2ccccc2)C(=O)c2ccccc21.[Co+2],–,–,62.4 µM,> 100 µM,–,–,> 100 µM,> 100 µM,> 100 µM,> 100 µM,–,> 100 µM,> 100 µM,–,> 100 µM,> 100 µM
N#Cc1c2ccccc2c2nnc3ccc(C(F)(F)F)cc3n12,–,–,91.6 µM,> 100 µM,88.1 µM,> 100 µM,33.5 µM,> 100 µM,–,–,> 100 µM,> 100 µM,39.8 µM,> 100,80.7 µM,16.1 µM
COC(=O)[C@@H](C)C[C@H](Cc1ccccc1)NC(=O)c1csc([C@@H](C[C@H](C(C)C)N(C)C(=O)C2(NC(=O)[C@H]3CCCCN3C)CCC2)OC(C)=O)n1,0.0463,–,0.000886 µM and 0.0025 µM,–,0.00584 µM and 0.0025 µM,0.152 µM,0.00779 µM and 0.00892 µM,> 25 µM,0.00784 µM and 0.00441 µM,0.0518 µM and 0.0137 µM,–,> 25 µM,0.146 µM and 0.125 µM,–,0.00661 µM and 0.0175 µM,0.00401 µM and 0.0025 µM
NC(=O)CCc1ccccc1Oc1nccc(-c2c(-c3ccc(F)cc3)ncn2C2CCNCC2)n1,> 25,> 25 µM,–,–,> 25 µM,> 25 µM,–,–,> 25 µM,> 25 µM,> 25 µM,> 25 µM,> 25 µM,> 25,> 25 µM,> 25 µM
O=C(Nc1ccc(I)cc1)c1cccc([N+](=O)[O-])c1O,4.13,87.7 µM,0.373 µM,3.22 µM,6.03 µM,> 100 µM,2.26 µM,8 µM,4.85 µM,> 100 µM,12.6 µM,> 100 µM,–,2.98,4.15 µM,–
Cc1cc(C(O)(c2ccc(Nc3ccccc3)cc2)c2ccc(Nc3ccc(S(=O)(=O)O)cc3)cc2)ccc1N (stereo not given),1.5,5.55 µM,1.03 µM,2.54 µM,–,–,1.69 µM,3.56 µM,1.64 µM,3.32 µM,3.18 µM,4.19 µM,2.58 µM,0.609,1.68 µM,1.26 µM
NS(=O)(=O)c1ccc(N=C2C(=O)Nc3ccccc32)cc1,–,> 100 µM,–,> 100 µM,–,> 100 µM,–,> 100 µM,–,–,> 100 µM,> 100 µM,> 100 µM,–,–,–
